The values that follow come from PMC7600679, “Benzoxazole-Based Metal Complexes to Reverse Multidrug Resistance in Bacteria” (Antibiotics, 2020).

In data set [1] the test system is C. violaceum 026 sensor strain with AHL producer E. cloacae 31298. Briefly: Quorum sensing inhibition (agar diffusion, violacein production). The format is cell-based, Chromobacterium violaceum. As to conditions: disc with 10 μL of 1 mM stock; reduction of violacein zone. On the procedure: The following bacterial strains were applied in the QS tests: C. violaceum 026 as sensor strain and E. cloacae 31298 isolated from clinical wound (used as N-acyl-homoserine lactone (AHL) producer); this strain induced pigment production by C. violaceum and is a model strain to study QS interactions.
LB* was applied for these experiments. The sensor strain C. violaceum 026 and the AHL producer strains E. cloacae 31298 were inoculated as parallel lines and incubated at room temperature for 24–48 h. The inhibition of bacterial communication was determined by the agar diffusion method. Filter paper discs (7.0 mm in diameter) were impregnated with 10 μL of stock solutions (1 mM) of the compounds in DMSO. The discs were placed between the parallel lines of the sensor and the AHL producer strains. The plates were kept at room temperature for another 24–48 h, and the interactions between the strains and compounds were determined as the reduction in the size of the zone of purple pigment (violacein) production in millimeters. PMZ was applied as a positive control.
(In general: In agar diffusion tests the substance spreads into inoculated agar from a disc or well.)

The subject of another data set is S. aureus ATCC 25923. Briefly: Anti-biofilm effect (crystal violet). As to conditions: compound at ¼ MIC, 48 h, 30 °C, vs untreated biofilm mass. Format: cell-based, Staphylococcus aureus. As to the method:
The effect of ligands and their metal complexes on biofilm formation was evaluated on the reference S. aureus ATCC 25923 strain. The biofilm inhibition (%) was calculated based on the mean of absorbance units.
The biofilm production of the S. aureus ATCC 25923 strain was studied in 96-well plates using TSB broth in the presence of compounds. […] The final volume was 200 μL in each well. The samples were incubated at 30 °C for 48 h with gentle agitation (100 rpm). Then, the medium was removed, and the plate was washed with tap water to discard unattached cells. 200 μL CV (0.1% [v/v]) was added to the wells and incubated for 15 min at room temperature. CV was removed from the wells and the plate was washed again with tap water. 200 μL 70% ethanol was transferred to each well and the biofilm formation was determined by measuring the OD at 600 nm using Multiscan EX ELISA reader (Thermo Labsystems, Cheshire, CT, USA). The anti-biofilm effect of compounds was determined as the percentage (%) of decrease in biofilm formation. The assay was repeated a minimum of three times. The results were calculated using a t-test and p-values of <0.001 were considered significant.

Data set [2] concerns MRC-5 human embryonal lung fibroblast cell line. Briefly: Cytotoxicity assay (MTT). Format: cell-based. In a few lines:
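MRC-5 fibroblasts (10^4/well, EMEM with 10% FBS) pre-seeded 4 h, then exposed to two-fold serial compound dilutions for 24 h at 37 °C. MTT added for 4 h, formazan dissolved in SDS/HCl overnight; OD read at 540 nm (ref. 630 nm). IC50 = dose reducing cell growth by 50%.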

In the case of `O=C(Cc1nc2ccccc2o1)C(F)F` [Compound 3], the “Inhibition zone (quorum sensing)” value in data set [1] was found to be 56 mm. Also, the Biofilm inhibition with S. aureus ATCC 25923 is listed as 16.4%. In addition, the “Cytotoxic effect (class in words)” value in data set [2] (24 h) is given as “moderate (IC50: 31–60)”. This molecule displayed an IC50 in data set [2] (Homo sapiens, MRC5, 24 h) of 44.5 µM.
Turning to `[O-]C(=Cc1nc2ccccc2o1)C(F)(F)Cl.[O-]C(=Cc1nc2ccccc2o1)C(F)(F)Cl.[Zn+2]` [Compound 5], the “Inhibition zone (quorum sensing)” value in data set [1] came out at 16 mm. Besides, the IC50 in data set [2] (24 h) came out at 24.6 µM.
In the data set with S. aureus ATCC 25923, `[Fe+3].[O-]C(=Cc1nc2ccccc2o1)C(F)(F)F.[O-]C(=Cc1nc2ccccc2o1)C(F)(F)F.[O-]C(=Cc1nc2ccccc2o1)C(F)(F)F` [Compound 12] came in with a Biofilm inhibition of 75%. Moreover, in data set [2] (24 h), the “Cytotoxic effect (class in words)” value was “no (IC50 > 100 µM)” and the half-inhibitory concentration (IC50) is greater than 100 µM.

Broadly, the IC50 is the midpoint of a concentration-inhibition curve. Lower therefore signals inhibition by little substance.
